# Legend:
# Stp1 [1] = target: Stp1 (Staphylococcus aureus, UniProt A0A0H2XF73, F179A); experiment: biochemical
# Stp1 [2] = target: Stp1 (Staphylococcus aureus, UniProt A0A0H2XF73, I164A); experiment: biochemical
# Stp1 [3] = target: T1, Stp1 (Staphylococcus aureus, UniProt A0A0H2XF73); experiment: pNPP phosphatase assay, absorbance […] nm; format: biochemical; settings: read-out: % inhibition at 32 μg/mL
# T1 sequence (A0A0H2XF73 1-247): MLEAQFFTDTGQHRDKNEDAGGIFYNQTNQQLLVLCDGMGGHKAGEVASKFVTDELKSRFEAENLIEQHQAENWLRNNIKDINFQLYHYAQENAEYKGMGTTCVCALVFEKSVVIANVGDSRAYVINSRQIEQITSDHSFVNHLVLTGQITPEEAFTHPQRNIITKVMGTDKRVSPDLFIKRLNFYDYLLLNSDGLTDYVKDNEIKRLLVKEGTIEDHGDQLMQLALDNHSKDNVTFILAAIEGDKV
# Stp1 [4] = target: Stp1 (Staphylococcus aureus, UniProt A0A0H2XF73, Y199A); experiment: biochemical
# Stp1 [5] = target: T1, Stp1; experiment: fluorescence quenching; format: binding
# Stp1 [6] = target: Stp1 (Staphylococcus aureus, UniProt A0A0H2XF73, P152A); experiment: biochemical
compound,measurement,setting,value
O=C(O[C@@H]1O[C@@H]2COC(=O)c3cc(O)c(O)c(O)c3-c3c(cc(O)c(O)c3O)C(=O)O[C@H]([C@H]1O)[C@@H]2O)c1cc(O)c(O)c(O)c1 [corilagin],Kd,Stp1 [1],2560 nM
same,Kd,Stp1 [2],8850 nM
same,inhibition at 32 µg/mL,Stp1 [3],> 90%
same,Kd,Stp1 [4],2870 nM
same,Kd,Stp1 [5],1940 nM
same,Kd,Stp1 [6],7250 nM

# — paper PMC7774088 (ACS Omega, 2020)
